Source: patent US9649282B2, “Diversion- and/or abuse-resistant compositions and methods for making the same” (Invincible Biotechnology, LLC, priority 2010, dated 2017)

Test: Abuse resistance through nasal inhalation: aminophylline in blood serum after intranasal administration to mice (HPLC)
Type: in vivo, male mice (CBA C50 Black F1 line)
Settings: 10 μL of solution, blood from retro-orbital sinus about 3 to 5 minutes after administration, pool of three mice
Method: 10 μL of each experimental solution was administered to a corresponding pool of three mice. About 3 to 5 minutes after administration, blood samples were drawn from the retro-orbital sinuses (sinus retroorbitalis) of the mice, combined and centrifuged for 10 minutes at 3000 rpm. The collected serum was then deproteinized with 0.3 M trichloroacetic acid at a serum to acid ratio of about 0.2 ml to 1.0 ml. To complete the precipitation of proteins, the samples were maintained in a thermostat at 20° C. for about 20 minutes and then filtered through a 0.45 micron acetate cellulose filter. The filtrates were analyzed for aminophylline concentration by injecting 20 μL samples into an HPLC, Schimadzu LC-20AD with photodiode array detector (PDA) and Phenomenex Luna 5μ C18, […] column. Acetonitrile in 0.1M phosphoric acid was used as a Mobile phase with linear gradient of acetonitrile of 1-50% vol., pressure 6.3 Mpa, flow rate 0.5 ml/min, and detector wavelength of about 272 nm.
The chromatograms of serums from Controls 1 and 2 with aminophylline concentration of 4% by weight and 24% by weight are shown in FIGS. 9 and 10, respectively. Similar chromatograms were prepared for all of the samples. The areas of the aminophylline peaks that are proportional to its concentration in the blood taken from the retro-orbital sinus, are presented in Table 6 below: […]

Cn1c(=O)c2[nH]cnc2n(C)c1=O [Control-1, aminophylline]
Aminophylline Concentration in Blood Serum: 19.91 µg/mL

Cn1c(=O)c2[nH]cnc2n(C)c1=O [Control-2, aminophylline]
Aminophylline Concentration in Blood Serum: 20.09 µg/mL
